Measured values reported in US20240317735A1, “HYDROISOQUINOLINE OR HYDRONAPHTHYRIDINE COMPOUNDS FOR THE TREATMENT OF AUTOIMMUNE DISEASE” (Hoffmann-La Roche Inc., priority 2020, published 2024).
Where two headings read alike, the source gives them in different places.

Tests used:
TLR9 = target: T1, TLR9 (Homo sapiens, UniProt Q9NR96); experiment: Human PBMC cell-based assay (CpG ODN 2216 stimulation); design: These cells express TLR7, TLR8, or TLR9, and therefore are natural responders to respective ligand stimulation; endogenous in cells; host or cells: human PBMC from healthy donor whole blood; conditions: CpG ODN 2216 at 1 μM, overnight, read-out: hPBMC/TLR9 IC50
T1 sequence (Q9NR96 26-1032): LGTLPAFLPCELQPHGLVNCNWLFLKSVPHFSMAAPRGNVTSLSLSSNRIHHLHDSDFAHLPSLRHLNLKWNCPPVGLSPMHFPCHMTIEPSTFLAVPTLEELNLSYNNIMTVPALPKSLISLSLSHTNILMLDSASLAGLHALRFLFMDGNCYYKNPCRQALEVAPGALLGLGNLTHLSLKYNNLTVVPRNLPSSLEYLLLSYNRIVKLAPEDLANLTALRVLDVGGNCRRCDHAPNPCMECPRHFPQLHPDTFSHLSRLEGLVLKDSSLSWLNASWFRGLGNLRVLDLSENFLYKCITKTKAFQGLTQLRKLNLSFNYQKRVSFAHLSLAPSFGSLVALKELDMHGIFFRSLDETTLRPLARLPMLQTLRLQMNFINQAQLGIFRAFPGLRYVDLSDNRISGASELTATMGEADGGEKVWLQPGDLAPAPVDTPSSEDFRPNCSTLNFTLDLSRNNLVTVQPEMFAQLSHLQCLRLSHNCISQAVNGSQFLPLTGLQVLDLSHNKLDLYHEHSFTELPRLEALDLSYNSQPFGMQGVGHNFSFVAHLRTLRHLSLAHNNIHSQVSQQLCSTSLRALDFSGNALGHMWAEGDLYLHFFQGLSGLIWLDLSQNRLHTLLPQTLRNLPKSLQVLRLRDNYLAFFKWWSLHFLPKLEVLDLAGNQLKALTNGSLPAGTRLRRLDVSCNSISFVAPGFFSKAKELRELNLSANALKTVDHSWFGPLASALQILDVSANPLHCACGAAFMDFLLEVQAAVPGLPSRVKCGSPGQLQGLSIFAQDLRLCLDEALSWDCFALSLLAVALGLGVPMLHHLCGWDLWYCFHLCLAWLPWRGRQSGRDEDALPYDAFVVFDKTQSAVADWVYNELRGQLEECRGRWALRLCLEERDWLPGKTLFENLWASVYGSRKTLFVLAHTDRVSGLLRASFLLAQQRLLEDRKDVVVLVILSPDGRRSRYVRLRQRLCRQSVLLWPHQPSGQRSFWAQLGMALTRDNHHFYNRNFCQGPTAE
Excerpt: Unlike the HEK reporter cell lines, human peripheral blood mononuclear cell (PBMC) represents primary human immune cells in blood mainly consisting of lymphocytes, monocytes, and dendritic cells. These cells express TLR7, TLR8, or TLR9, and therefore are natural responders to respective ligand stimulation. Upon activation of these TLRs, PBMCs secrete similar cytokines and chemokines in vitro and in vivo, and therefore the in vitro potency of a TLR7/8/9 antagonist in human PBMC is readily translatable to its pharmacodynamics response in vivo.
Human peripheral blood mononuclear cells (PBMC) were isolated from freshly-drawn lithium-heparinized (Lithium Heparin Plus blood Collection tube, BD Vacutainer®) healthy donor whole blood by density gradient (Ficoll-Paque™ PLUS, GE Healthcare life Sciences). Briefly, 50 mL of blood was diluted with 25 mL PBS (without Ca^2+, Mg^2+) in a 50 mL conical tube with porous barrier (Leucosep tube, Greiner bio-one), where 15.5 mL Ficoll-Paque was under laid after spinning. Tubes were centrifuged for 20 minutes at 800×g (1946 rpm) with the brake in the off position, and PBMC were collected from the buffy coat. Cells were then washed twice in PBS, and red blood cells were lysed by suspension in 2 mL (Red Blood Cell Lysis Buffer, Alfa Aesar) for 5-10 minutes at room temperature. After a final wash in PBS, PBMC were resuspended at a final concentration of 2×10^6 cells/mL in RPMI-1640 media with GlutaMAX™ (Gibco) supplemented with 10% Fetal Bovine Serum (Sigma) and plated at 150 μL/well (3×10^5 cells/well) in tissue culture treated round bottom 96-well plates (Corning Incorporated). Antagonist compounds (compounds of this invention) solubilized and serial diluted in 100% DMSO were added in duplicate to cells to yield a final concentration of 1% DMSO (v/v). PBMC were incubated with antagonist compounds for 30 minutes at 37° C., 5% CO2 before adding various TLR agonist reagents in 48 μL complete media per well as follows (final concentrations indicated): CpG ODN 2216 (InvivoGen) at 1 μM for TLR9, ORN 06/LyoVec (InvivoGen) at […] for TLR8 and R848 (InvivoGen) at 1p g/mL for TLR7 and TLR8. PBMC were incubated overnight at 37° C. with 5% CO2. Cell culture supernatants were collected, and levels of various human cytokines were assessed by Luminex assay (ProcartaPlex™ Multiplex Immunoassay, Invitrogen) or ELISA procedure according to the manufacturer's recommended protocol (eBioscience, ThermoFisher Scientific). Viability of the cells was also checked with Cell Viability Assay (CellTiter Glo®Luminescent Cell Viability Assay, Promega).

[1] = Single dose pharmacokinetics (PK) study in male Wister-Han rats; format: in vivo, rat; conditions: for F: dose normalized AUC0-last PO 10 mg/kg vs IV 2 mg/kg; for AUC(0-t) / Cmax / clearance / half-life / Vd: rat, plasma; for Vd: read-out: Vss
Method: Pharmacokinetic properties of selected compounds were assessed by single dose PK studies in Male Wister-Han Rats (vendor: Beijing Vital River Laboratory Animal Technology Co., Ltd). Briefly, two groups of animals were administered a single dose of respective compound intravenously (IV, bolus) at 2 mg/kg or orally (PO, by gavage) at 10 mg/kg. Blood samples (approximately 150 μL) were collected via Jugular vein at 5 min (only for IV), 15 min, 30 min, 1 h, 2 h, 4 h, 7 h and 24 h post-dose. Blood samples were placed into tubes containing EDTA-K2 anticoagulant and centrifuged at 3000 rpm for 15 min at 4° C. to separate plasma from the samples. After centrifugation, the resulting plasma was transferred to clean tubes for bioanalysis with LC/MS/MS. The pharmacokinetic parameters were calculated using non-compartmental analysis. The volume of distribution (Vss), half-life (T1/2) and clearance (CL) were obtained based on the plasma concentration-time curve after IV dose. The peak concentration (Cmax) was recorded directly from experimental observations after PO dose. The area under the plasma concentration-time curve (AUC0-last) was calculated using the linear trapezoidal rule up to the last detectable concentration. The bioavailability (F) was calculated based on the dose normalized AUC0-last after IV and PO dose.
The Vss of a drug represents the degree to which a drug is distributed in body tissue rather than the plasma. Vss is directly proportional with the amount of drug distributed into tissue. A higher Vss indicates a greater amount of tissue distribution.

[2] = IV 2 mg/kg, read-out: IV AUC0-last
[3] = PO 10 mg/kg, read-out: PO AUC0-last

Row | Structure (SMILES) | IC50 (TLR9) [nM] | further results
1 | Cn1ncc2c(N3CCc4cc(N5CCNCC5)ccc4C3)ccnc21 [Example 3, 2-(1-methylpyrazolo[3,4-b]pyridin-4-yl)-6-piperazin-1-yl-3,4-dihydro-1H-isoquinoline] | 434 | 
2 | C[C@H]1CN(c2ccnc3c2cnn3C)Cc2ccc(OC[C@@H]3CNCCN3)cc21 [Example 19, (4R)-4-methyl-2-(1-methylpyrazolo[3,4-b]pyridin-4-yl)-6-[[(2S)-piperazin-2-yl]methoxy]-3,4-dihydro-1H-isoquinoline] | 395 | F [1]: 32%; AUC(0-t) [1, 2]: 887 ng·h/mL; Cmax ([1]; PO 10 mg/kg): 102 ng/mL; AUC(0-t) [1, 3]: 1410 ng·h/mL; clearance ([1]; IV 2 mg/kg): 34 mL/min/kg; half-life ([1]; IV 2 mg/kg): 534 min; Vd ([1]; IV 2 mg/kg): 16 L/kg
3 | CC1CN(c2ccnc3c2cnn3C)Cc2ccc(N3CCC4(CCNCC4)CC3)cc21 (centres unmarked) [Example 4, 3-[4-methyl-2-(1-methylpyrazolo[3,4-b]pyridin-4-yl)-3,4-dihydro-1H-isoquinolin-6-yl]-3,9-diazaspiro[5.5]undecane] | 265 | 
4 | C[C@H]1CN(c2ccnc3c2cnn3C)Cc2ccc(N3CCC(N4CC(N)C4)CC3)cc21 [Example 28, 1-[1-[(4R)-4-methyl-2-(1-methylpyrazolo[3,4-b]pyridin-4-yl)-3,4-dihydro-1H-isoquinolin-6-yl]-4-piperidyl]azetidin-3-amine] | 271 | 
5 | Cc1cc(N2Cc3cnc(N4CCNCC4)cc3[C@@H](C)C2)c2cnn(C)c2n1 [Example 74, (4R)-2-(1,6-dimethylpyrazolo[3,4-b]pyridin-4-yl)-4-methyl-6-piperazin-1-yl-3,4-dihydro-1H-2,7-naphthyridine] | 250 | 
6 | C[C@H]1CN(c2ccnc3c2cnn3C)Cc2ccc(N3CCN[C@@H](CO)C3)cc21 [Example 50, [(2R)-4-[(4R)-4-methyl-2-(1-methylpyrazolo[3,4-b]pyridin-4-yl)-3,4-dihydro-1H-isoquinolin-6-yl]piperazin-2-yl]methanol] | 475 | 
7 | Cc1cc(N2Cc3ccc(OC[C@@H]4CNCCN4)cc3[C@@H](C)C2)c2cnn(C)c2n1 [Example 31, (4R)-2-(1,6-dimethylpyrazolo[3,4-b]pyridin-4-yl)-4-methyl-6-[[(2S)-piperazin-2-yl]methoxy]-3,4-dihydro-1H-isoquinoline] | 214 | 
8 | C[C@H]1CN(c2ccnc3c2cnn3C)Cc2ccc(N3CCN(c4cc5c(cn4)CCNC5)CC3)cc21 [Example 9, 7-[4-[(4R)-4-methyl-2-(1-methylpyrazolo[3,4-b]pyridin-4-yl)-3,4-dihydro-1H-isoquinolin-6-yl]piperazin-1-yl]-1,2,3,4-tetrahydro-2,6-naphthyridine] | 326 | 
9 | CO[C@H]1CN(c2ccc3c(n2)[C@@H](C)CN(c2cc(C)nc4c2cnn4C)C3)CC[C@@H]1N [Example 65, (3S,4S)-3-methoxy-1-[(8S)-6-(1,6-dimethylpyrazolo[3,4-b]pyridin-4-yl)-8-methyl-7,8-dihydro-5H-1,6-naphthyridin-2-yl]piperidin-4-amine] | 371 | 
10 | Cc1cc(N2Cc3ccc(N4CCC5(CCNCC5)CC4)cc3C(C)C2)c2cnn(C)c2n1 (centres unmarked) [Example 5, 3-[2-(1,6-dimethylpyrazolo[3,4-b]pyridin-4-yl)-4-methyl-3,4-dihydro-1H-isoquinolin-6-yl]-3,9-diazaspiro[5.5]undecane] | 156 | 
11 | C[C@H]1CN(c2ccnc3c2cnn3C)Cc2ccc(OC3CN(C4CCNCC4)C3)cc21 [Example 41, (4R)-4-methyl-2-(1-methylpyrazolo[3,4-b]pyridin-4-yl)-6-[1-(4-piperidyl)azetidin-3-yl]oxy-3,4-dihydro-1H-isoquinoline] | 286 | 
12 | CO[C@H]1CN(c2cc3c(cn2)CN(c2cc(C)nc4c2cnn4C)C[C@@H]3C)CC[C@@H]1N [Example 73, (3S,4S)-3-methoxy-1-[(5R)-7-(1,6-dimethylpyrazolo[3,4-b]pyridin-4-yl)-5-methyl-6,8-dihydro-5H-2,7-naphthyridin-3-yl]piperidin-4-amine] | 340 | 
13 | Cc1cc(N2Cc3ccc(N4C[C@@H](N)[C@H](O)C4)cc3[C@@H](C)C2)c2cnn(C)c2n1 [Example 47, trans-4-amino-1-[(4R)-2-(1,6-dimethylpyrazolo[3,4-b]pyridin-4-yl)-4-methyl-3,4-dihydro-1H-isoquinolin-6-yl]pyrrolidin-3-ol] | 290 | 
14 | C[C@H]1CN(c2ccnc3c2cnn3C)Cc2ccc(OC[C@H]3CNCCN3)cc21 [Example 18, (4R)-4-methyl-2-(1-methylpyrazolo[3,4-b]pyridin-4-yl)-6-[[(2R)-piperazin-2-yl]methoxy]-3,4-dihydro-1H-isoquinoline] | 365 | 
15 | CO[C@@H]1CN(c2ccc3c(c2)[C@@H](C)CN(c2ccnc4c2cnn4C)C3)C[C@H]1N [Example 20, (3R,4R)-4-methoxy-1-[(4R)-4-methyl-2-(1-methylpyrazolo[3,4-b]pyridin-4-yl)-3,4-dihydro-1H-isoquinolin-6-yl]pyrrolidin-3-amine] |  | F [1]: 60%; AUC(0-t) [1, 2]: 5480 ng·h/mL; Cmax ([1]; PO 10 mg/kg): 1140 ng/mL; AUC(0-t) [1, 3]: 16500 ng·h/mL; clearance ([1]; IV 2 mg/kg): 6 mL/min/kg; half-life ([1]; IV 2 mg/kg): 198 min; Vd ([1]; IV 2 mg/kg): 1.5 L/kg
16 | Cc1cc(N2Cc3ccc(N4CCC(N)CC4)nc3[C@@H](C)C2)c2cnn(C)c2n1 [Example 58, 1-[(8S)-6-(1,6-dimethylpyrazolo[3,4-b]pyridin-4-yl)-8-methyl-7,8-dihydro-5H-1,6-naphthyridin-2-yl]piperidin-4-amine] | 277 | 
